Results as given in ChEMBL document CHEMBL1146848, “The development of novel 1,2-dihydro-pyrimido[4,5-c]pyridazine based inhibitors of lymphocyte specific kinase (Lck)” (Bioorg Med Chem Lett, 2006).
≈ marks a conversion by molar mass, not a printed value.

Columns and labels:
Jurkat = experiment: Inhibition of anti-human CD3 epsilon-stimulated IL2 production in Jurkat E6-1 T cells; type: functional, cell-based
[1] = molecular target: Proto-oncogene tyrosine-protein kinase Src (Homo sapiens, UniProt P12931); experiment: Inhibition of human recombinant Src in presence of 10 mM ATP
[2] = molecular target: Tyrosine-protein kinase Lck (Homo sapiens, UniProt P06239); experiment: Inhibition of human recombinant Lck in presence of 10 mM ATP
[3] = Aqueous solubility of the compound; type: physicochemical; settings: buffer
[4] = molecular target: Tyrosine-protein kinase HCK (Homo sapiens, UniProt P08631); experiment: Inhibition of human recombinant Hck in presence of 10 mM ATP
[5] = Metabolic stability in Sprague-Dawley rat liver microsome after 1 hr; type: ADME; settings: liver microsomes, read-out: Stability
[6] = Bioavailability in rat; type: ADME, organism-based; settings: in vivo
[7] = Half life in rat; type: ADME, organism-based; settings: in vivo

Sequence of Proto-oncogene tyrosine-protein kinase Src (P12931 2-536 limits assumed): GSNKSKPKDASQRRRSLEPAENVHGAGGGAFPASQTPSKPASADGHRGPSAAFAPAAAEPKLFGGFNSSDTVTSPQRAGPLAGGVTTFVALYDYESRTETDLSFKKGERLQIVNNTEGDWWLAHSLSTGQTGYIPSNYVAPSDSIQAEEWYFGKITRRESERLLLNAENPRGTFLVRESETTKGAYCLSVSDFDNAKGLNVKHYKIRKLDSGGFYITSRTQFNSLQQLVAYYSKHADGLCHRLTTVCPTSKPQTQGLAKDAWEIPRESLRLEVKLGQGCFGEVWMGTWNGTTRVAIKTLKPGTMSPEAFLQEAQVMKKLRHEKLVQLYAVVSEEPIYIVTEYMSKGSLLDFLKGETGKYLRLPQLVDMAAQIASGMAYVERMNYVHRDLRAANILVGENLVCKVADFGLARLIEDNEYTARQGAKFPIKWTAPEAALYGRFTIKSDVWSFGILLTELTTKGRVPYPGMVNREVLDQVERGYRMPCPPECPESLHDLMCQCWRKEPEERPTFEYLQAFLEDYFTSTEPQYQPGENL
Sequence of Tyrosine-protein kinase Lck (P06239 whole entry): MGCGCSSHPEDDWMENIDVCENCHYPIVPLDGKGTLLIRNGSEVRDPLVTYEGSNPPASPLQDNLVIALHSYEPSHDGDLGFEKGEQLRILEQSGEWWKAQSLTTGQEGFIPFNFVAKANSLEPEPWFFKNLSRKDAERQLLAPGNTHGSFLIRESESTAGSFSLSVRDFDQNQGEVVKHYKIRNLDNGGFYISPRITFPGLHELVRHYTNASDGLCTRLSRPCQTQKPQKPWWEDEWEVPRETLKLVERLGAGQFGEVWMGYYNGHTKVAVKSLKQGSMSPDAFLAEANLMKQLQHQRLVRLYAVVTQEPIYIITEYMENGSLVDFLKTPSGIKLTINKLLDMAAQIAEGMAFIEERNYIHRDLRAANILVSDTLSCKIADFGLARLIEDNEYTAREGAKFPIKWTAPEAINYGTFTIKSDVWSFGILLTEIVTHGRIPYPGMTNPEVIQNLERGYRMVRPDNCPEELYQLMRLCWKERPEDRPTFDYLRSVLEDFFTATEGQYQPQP
Sequence of Tyrosine-protein kinase HCK (P08631 whole entry): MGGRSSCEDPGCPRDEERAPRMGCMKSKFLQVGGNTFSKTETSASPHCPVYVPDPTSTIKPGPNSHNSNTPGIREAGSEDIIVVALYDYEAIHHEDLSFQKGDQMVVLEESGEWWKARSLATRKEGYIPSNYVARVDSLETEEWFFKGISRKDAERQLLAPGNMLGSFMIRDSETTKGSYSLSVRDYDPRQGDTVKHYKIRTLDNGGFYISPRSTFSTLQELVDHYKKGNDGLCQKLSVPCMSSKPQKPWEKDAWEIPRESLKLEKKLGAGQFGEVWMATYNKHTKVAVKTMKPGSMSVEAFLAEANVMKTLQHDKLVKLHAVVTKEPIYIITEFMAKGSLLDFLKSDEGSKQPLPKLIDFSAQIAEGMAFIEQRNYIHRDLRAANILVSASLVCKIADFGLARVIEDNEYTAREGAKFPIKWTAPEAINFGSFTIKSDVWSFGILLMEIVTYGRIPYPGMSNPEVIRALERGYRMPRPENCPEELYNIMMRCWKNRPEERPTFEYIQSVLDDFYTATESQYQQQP

Row | SMILES | IC50 ([2]; read-out: IC50) [nM] | solubility [3] [µg/mL] | other results
1 | CN(C)c1ccc(Nc2ncc3c(n2)N2CCC(=O)N2C(c2cc(O)ccc2Cl)=C3)cc1 | 10 | 1 (≈ 2.23 µM) | IC50 (Jurkat): 0.546 nM; IC50 [1]: 273 nM; IC50 [4]: 546 nM
2 | CN1CCN(c2ccc(Nc3ncc4c(n3)N3CCC(=O)N3C(c3cc(O)ccc3Cl)=C4)cc2)CC1 | 47 | 11 (≈ 21.8 µM) | IC50 (Jurkat): 2.1 nM; IC50 [1]: 764 nM; IC50 [4]: 456 nM
3 | O=C1CCN2c3nc(Nc4ccc(F)cc4)ncc3C=C(c3c(Cl)cccc3Cl)N12 | 124 | 2 (≈ 4.52 µM) | 
4 | COc1ccc(Cl)c(C2=Cc3cnc(Nc4ccc(N(C)C)cc4)nc3N3CCC(=O)N23)c1 | 2840 | 7 (≈ 15.1 µM) | 
5 | COc1ccc(Cl)c(C2=Cc3cnc(Nc4ccc(F)cc4)nc3N3CCC(=O)N23)c1 | 4800 | 7 (≈ 16 µM) | 
6 | CN1C(c2c(Cl)cccc2Cl)=Cc2cnc(Nc3ccc(F)cc3)nc2N1C | 3200 |  | 
7 | CCOc1ccc(Nc2ncc3c(n2)N2CCC(=O)N2C(c2c(Cl)cccc2Cl)=C3)cc1 | 285 |  | 
8 | CN1C(c2ccccc2Cl)=Cc2cnc(Nc3ccc(F)cc3)nc2N1C |  |  | IC50 [2]: Not Active
9 | CN(C)CCc1ccc(Nc2ncc3c(n2)N2CCC(=O)N2C(c2c(Cl)cccc2Cl)=C3)cc1 | 21 | 10 (≈ 20.2 µM) | 
10 | CCN(CC)c1ccc(Nc2ncc3c(n2)N2CCC(=O)N2C(c2c(Cl)cccc2Cl)=C3)cc1 | 43 | 1 (≈ 2.02 µM) | 
11 | O=C1CCN2c3nc(Nc4ccccc4)ncc3C=C(c3c(Cl)cccc3Cl)N12 | 182 | 2 (≈ 4.71 µM) | 
12 | CCN(CC)CCOc1ccc(Nc2ncc3c(n2)N2CCC(=O)N2C(c2c(Cl)cccc2Cl)=C3)cc1 | 2 | 33.8 (≈ 62.7 µM) | IC50 (Jurkat): 3.21 nM; IC50 [1]: 3 nM; remaining at 1 h [5]: > 84%; bioavailability [6]: 14%; half-life [7]: 90 min; IC50 [4]: 48 nM
13 | CN(C)c1ccc(Nc2ncc3c(n2)N2CCC(=O)N2C(c2c(Cl)cccc2Cl)=C3)cc1 | 26 | 5 (≈ 10.7 µM) | 
14 | COc1cccc(Nc2ncc3c(n2)N2CCC(=O)N2C(c2c(Cl)cccc2Cl)=C3)c1 | 179 |  | 
15 | COC(=O)c1ccc(Nc2ncc3c(n2)N2CCC(=O)N2C(c2c(Cl)cccc2Cl)=C3)cc1 | 143 |  | 
16 | COc1ccc(Nc2ncc3c(n2)N2CCC(=O)N2C(c2c(Cl)cccc2Cl)=C3)cc1 | 71 | 5 (≈ 11 µM) | 
17 | O=C1CCN2c3nc(Nc4ccc(N5CCOCC5)cc4)ncc3C=C(c3c(Cl)cccc3Cl)N12 | 3 | 6 (≈ 11.8 µM) | IC50 (Jurkat): 2 nM; IC50 [1]: 104 nM; IC50 [4]: 160 nM
18 | COc1ccccc1Nc1ncc2c(n1)N1CCC(=O)N1C(c1c(Cl)cccc1Cl)=C2 | 7270 |  | 
19 | CNc1ncc2c(n1)N1CCC(=O)N1C(c1c(Cl)cccc1Cl)=C2 | 2810 |  | 
